Experimental data reported in patent US20240246920A1, “TRIAZOLE DERIVATIVES WITH ANTIFUNGAL ACTIVITY” (King's College London, priority 2020, published 2024).
In brackets after ≈: the same amount, converted by molar mass. Like-named read-outs stand apart in the source and are kept apart here.

Legend:
C. glabrata NCPF8018 = assay: Candida panel MIC, serial dilution in 96-well plates; assay type: cell-based, Candida glabrata; conditions: Nakaseomyces glabratus
Method: (§1) The minimum inhibitory concentration of test compounds were determined in a panel of Candida species (see Table 4 below), using the a serial dilution method in 96-well plates using the following protocol.
(§2) Starter cultures of fungal strains to be tested were grown in 3 mL of RPMI 2% glucose media incubated at 37° C. with shaking at 200 rpm overnight. The culture media used was 900 mL H2O; 10.4 g RPMI 1640 (with L-glutamine and a pH indicator but without bicarbonate); 34.5 g MOPS and 18 g glucose. The pH of the media was adjusted to 7.0 with 1 M sodium hydroxide.
(§3) Solutions of the compound to be tested were prepared by dissolving the compound in DMSO and subsequently into media to the desired concentrations. […] The last two rows of each plate were control rows containing the culture media alone and the media plus fungi.
(§4) The fungi starter cultures were diluted 1:10 in water in cuvettes. This was then further diluted to an optical density (OD600) of 0.01 in media. 100 μL of the fungi was added to each well giving a starting concentration of fungus of 0.5-5×10^5/mL. One species of fungus was used on each plate. The plates were then held at 37° C. for 24 hours.
(§5) A plate reader was used to measure growth in each well at OD530 nm and the MIC was determined for each test compound. The MIC is defined as the lowest concentration giving rise to inhibition of ≥50% of that of the drug-free control well containing the fungus and media.

Candida auris TDG2211 = assay: microbe, parasite or virus in culture; assay type: cell-based; conditions: Candidozyma auris, TDG2211; Table 4, extended panel; 24 hours, ≥50% inhibition; read-out: MIC Candida auris TDG2211
Method: as §1, §2, §3, §4, §5
(§6) The Candida auris strains shown in Table 7 were either taken from the National Collection of Pathogenic Fungi (NCPF) or collected as part of ongoing surveillance studies. The strains were characterised as follows.

Candida auris TDG2506 = assay: microbe, parasite or virus in culture; assay type: cell-based; conditions: Candidozyma auris, TDG2506; Table 4, extended panel; 24 hours, ≥50% inhibition; read-out: MIC Candida auris TDG2506
Method: as §1, §2, §3, §4, §5, §6

C. auris 8984 = assay: Candida panel MIC, serial dilution in 96-well plates; assay type: cell-based, Candida auris; conditions: Candidozyma auris, 8984; Table 4, extended panel; 24 hours, ≥50% inhibition; read-out: MIC C. auris 8984
Method: as §1, §2, §3, §4, §5, §6

C. auris 8977 = assay: as above; assay type: cell-based, Candida auris; conditions: Candidozyma auris, 8977; Table 4, extended panel; 24 hours, ≥50% inhibition; read-out: MIC C. auris 8977
Method: as §1, §2, §3, §4, §5, §6

C. auris 8971 = assay: as above; assay type: cell-based, Candida auris; conditions: Candidozyma auris, 8971; Table 4, extended panel; 24 hours, ≥50% inhibition; read-out: MIC C. auris 8971
Method: as §1, §2, §3, §4, §5, §6

C. tropicalis NCPF8760 = assay: as above; assay type: cell-based
Method: as §1, §2
(§7) Solutions of the compound to be tested were prepared by dissolving the compound in DMSO and subsequently into media to the desired concentrations. 200 μL of compound solution was then added to the wells of the 96-well plate using a serial dilution method row-by row of the plate to give a compound concentration gradient across the plate of from 128 μg/mL to 0.25 μg/mL. The last two rows of each plate were control rows containing the culture media alone and the media plus fungi.
as §4, §5

Candida auris TDG1102 = assay: as above; assay type: cell-based; conditions: Candidozyma auris, TDG1102; Table 4, extended panel; 24 hours, ≥50% inhibition; read-out: MIC Candida auris TDG1102
Method: as §1, §2, §7, §4, §5

Candida auris TDG2512 = assay: as above; assay type: cell-based; conditions: Candidozyma auris, TDG2512; Table 4, extended panel; 24 hours, ≥50% inhibition; read-out: MIC Candida auris TDG2512
Method: as §1, §2, §7, §4, §5

C. auris TDG1912 = assay: as above; assay type: cell-based; conditions: Candidozyma auris, TDG1912; Table 4; 24 hours, ≥50% inhibition; read-out: MIC C. auris TDG1912
Method: as §1, §2, §7, §4, §5

C. albicans NCPF3281 = assay: as above; assay type: cell-based, Candida albicans; conditions: Candida albicans, NCPF3281; Table 4, common panel; 24 hours, ≥50% inhibition; read-out: MIC C. albicans NCPF3281
Method: as §1, §2, §7, §4, §5

C. krusei NCPF3876 = assay: microbe, parasite or virus in culture; assay type: cell-based, Candida krusei; conditions: Pichia kudriavzevii
Method: as §1, §2, §3, §4, §5

C. parapsilosis NCPF3209 = assay: microbe, parasite or virus in culture; assay type: cell-based, Candida parapsilosis; conditions: Lodderomyces parapsilosis
Method: as §1, §2, §3, §4, §5

[1] = NCPF8018, Table 4, common panel, 24 hours, ≥50% inhibition, read-out: MIC C. glabrata NCPF8018
[2] = NCPF8760, Table 4, common panel, 24 hours, ≥50% inhibition, read-out: MIC C. tropicalis NCPF8760
[3] = NCPF3876, Table 4, common panel, 24 hours, ≥50% inhibition, read-out: MIC C. krusei NCPF3876
[4] = NCPF3209, Table 4, common panel, 24 hours, ≥50% inhibition, read-out: MIC C. parapsilosis NCPF3209
[5] = NCPF8018, read-out: MIC C. Glabrata NCPF8018
[6] = NCPF8760, read-out: MIC C. Tropicalis NCPF8760
[7] = NCPF3876, read-out: MIC C. Krusei NCPF3876
[8] = NCPF3209, read-out: MIC C. Parapsilosis NCPF3209

Row | SMILES | MIC (C. glabrata NCPF8018; [1]) | MIC (Candida auris TDG2211) | MIC (Candida auris TDG2506) | MIC (C. auris 8984) | MIC (C. auris 8977) | MIC (C. auris 8971) | MIC (C. tropicalis NCPF8760; [2]) | MIC (Candida auris TDG1102) | MIC (Candida auris TDG2512) | MIC (C. auris TDG1912) | MIC (C. albicans NCPF3281) | MIC (C. krusei NCPF3876; [3]) | MIC (C. parapsilosis NCPF3209; [4]) | MIC (C. glabrata NCPF8018; [5]) | MIC (C. tropicalis NCPF8760; [6]) | MIC (C. krusei NCPF3876; [7]) | MIC (C. parapsilosis NCPF3209; [8])
1 | CC1CCN(COc2ccc(NC3CCN(CC(O)(Cn4cncn4)c4ccc(F)cc4F)CC3)cc2)CC1 (stereo not shown) [Example 83] | 8000 ng/mL (≈ 14.8 µM) | 250 ng/mL (≈ 0.462 µM) | 500 to 2000 ng/mL (≈ 0.925 to 3.7 µM) | 2000 ng/mL (≈ 3.7 µM) | 1000 ng/mL (≈ 1.85 µM) | 1000 ng/mL (≈ 1.85 µM) | 8000 ng/mL (≈ 14.8 µM) | 4000 ng/mL (≈ 7.4 µM) | 250 ng/mL (≈ 0.462 µM) | 1000 to 4000 ng/mL (≈ 1.85 to 7.4 µM) | 60 ng/mL (≈ 0.111 µM) | 4000 ng/mL (≈ 7.4 µM) | 60 ng/mL (≈ 0.111 µM) |  |  |  | 
2 | OC(CN1CCCC(Nc2ccc(Cc3ccccc3)cc2)CC1)(Cn1cncn1)c1ccc(F)cc1F (stereo not shown) [Example 9, 1-(4-((4-Benzylphenyl)amino)azepan-1-yl)-2-(2,4-difluorophenyl)-3-(1H-1,2,4-triazol-1-yl)propan-2-ol] | 125 ng/mL (≈ 0.241 µM) | 250 ng/mL (≈ 0.483 µM) | 500 ng/mL (≈ 0.966 µM) | 120 ng/mL (≈ 0.232 µM) | 0.1 ng/mL (≈ 0.000193 µM) | 120 ng/mL (≈ 0.232 µM) | 125 ng/mL (≈ 0.241 µM) | 1000 ng/mL (≈ 1.93 µM) | 125 ng/mL (≈ 0.241 µM) | 500 ng/mL (≈ 0.966 µM) | < 4 ng/mL | 8 ng/mL (≈ 0.0155 µM) | ≤ 0.06 ng/mL | 125 ng/mL (≈ 0.241 µM) | 500 ng/mL (≈ 0.966 µM) | 8 ng/mL (≈ 0.0155 µM) | ≤ 0.06 ng/mL
3 | OC(CN1CCC(N2CCC(Nc3ncc(F)cn3)CC2)CC1)(Cn1cncn1)c1ccc(F)cc1F (stereo not shown) [Example 10, 2-(2,4-Difluorophenyl)-1-(4-((5-fluoropyrimidin-2-yl)amino)-[1,4′-bipiperidin]-1′-yl)-3-(1H-1,2,4-triazol-1-yl)propan-2-ol] | 64000 ng/mL (≈ 124 µM) | 64000 ng/mL (≈ 124 µM) | 8000 ng/mL (≈ 15.5 µM) | 500 ng/mL (≈ 0.968 µM) | 1000 ng/mL (≈ 1.94 µM) | 500 ng/mL (≈ 0.968 µM) | 64000 ng/mL (≈ 124 µM) | 4000 ng/mL (≈ 7.74 µM) | 500 ng/mL (≈ 0.968 µM) | 4000 ng/mL (≈ 7.74 µM) | 15 ng/mL (≈ 0.029 µM) | 32000 ng/mL (≈ 61.9 µM) | 125 ng/mL (≈ 0.242 µM) |  |  |  | 
4 | OC(CN1CCCN(c2ncc(F)cn2)CC1)(Cn1cncn1)c1ccc(F)cc1F (stereo not shown) [Example 8, 2-(2,4-Difluorophenyl)-1-(4-(5-fluoropyrimidin-2-yl)-1,4-diazepan-1-yl)-3-(1H-1,2,4-triazol-1-yl)propan-2-ol] | 250 ng/mL (≈ 0.577 µM) | 1000 ng/mL (≈ 2.31 µM) | 8000 ng/mL (≈ 18.5 µM) | 120 ng/mL (≈ 0.277 µM) | 120 ng/mL (≈ 0.277 µM) | 120 ng/mL (≈ 0.277 µM) | 1000 ng/mL (≈ 2.31 µM) | 1000 ng/mL (≈ 2.31 µM) | 2000 ng/mL (≈ 4.61 µM) | 2000 ng/mL (≈ 4.61 µM) | < 15 ng/mL | 500 ng/mL (≈ 1.15 µM) | 15 ng/mL (≈ 0.0346 µM) |  |  |  | 
5 | OC(CN1CCC2(CCN(c3ncc(F)cn3)CC2)C1)(Cn1cncn1)c1ccc(F)cc1F (stereo not shown) [Example 7, 2-(2,4-Difluorophenyl)-1-(8-(5-fluoropyrimidin-2-yl)-2,8-diazaspiro[4.5]decan-2-yl)-3-(1H-1,2,4-triazol-1-yl)propan-2-ol] | 250 ng/mL (≈ 0.528 µM) | 125 ng/mL (≈ 0.264 µM) | 500 ng/mL (≈ 1.06 µM) | 120 ng/mL (≈ 0.253 µM) | 2 ng/mL (≈ 0.00422 µM) | 30 ng/mL (≈ 0.0634 µM) | 15 ng/mL (≈ 0.0317 µM) | 250 ng/mL (≈ 0.528 µM) | 30 ng/mL (≈ 0.0634 µM) | 120 ng/mL (≈ 0.253 µM) | < 8 ng/mL | 60 ng/mL (≈ 0.127 µM) | 4 ng/mL (≈ 0.00845 µM) | 250 ng/mL (≈ 0.528 µM) | 15 ng/mL (≈ 0.0317 µM) | 60 ng/mL (≈ 0.127 µM) | 4 ng/mL (≈ 0.00845 µM)
